{"source": "patent US12357668B2", "about": "“Anticancer activity of Buddleja saligna compositions” (University of Pretoria, priority 2019, dated 2025)", "key": {"SK-MEL-2 melanoma": {"test_system": "SK-MEL-2 melanoma", "conditions": "SK-MEL-2 CAM model; Caunii et al., 2017; cited from earlier work"}, "[1]": {"test_system": "UCT-MEL-1 (human pigmented melanoma) cells", "assay": "XTT antiproliferative assay, human melanoma cells", "type": "cell-based", "conditions": "HaCat versus UCT-MEL-1 IC50", "protocol": "To investigate the antiproliferative potential of B. saligna and DT-BS-01, the XTT assay was performed. Antiproliferative activity was measured using the method as described by Berrington and Lall (2012) using the XTT Cell Proliferation Kit II. Cells were seeded at a concentration of 1.0×10^6 cells/ml in 96-well plates (100 μl) and allowed to adhere for 24 h. The B. saligna extract and DT-BS-01 were prepared at stock concentrations of 20 mg/ml, serially diluted and added to the 96-well plates at final concentrations ranging from 1.56-200 μg/ml. […] Cells were incubated for a further 72 h with the respective samples and controls. […] Blank plates were included which were prepared in the same manner as mentioned above, without the additional of cell, to allow for colour compensation of the samples. The samples were tested in triplicate and the percentage cell viability was calculated using the following equation. […] Where Abscontrol is the absorbance of XTT+vehicle control and Absample is the absorbance of (XTT+sample OR positive control)-(blank values of corresponding sample). […] The XTT colorimetric assay is based on the ability of viable metabolically active cells to convert a yellow tetrazolium salt to an orange formazan dye. […]"}, "[2]": {"test_system": "HaCat (human keratinocytes) cells", "assay": "XTT antiproliferative assay, human keratinocytes", "type": "cell-based", "conditions": "72 h exposure", "protocol": "The cell lines were maintained in culture flasks containing Dulbecco's modified Eagle's medium (DMEM) supplemented with 10%, heat-inactivated fetal bovine serum (FBS) and 100 U/ml penicillin, 100 μg/ml streptomycin and 250 μg/ml fungizone at 37° C. and 5%, CO2. Cells were sub-cultured once an 80%, confluent monolayer had formed using trypsin-EDTA (0.25%, trypsin containing 0.01%, EDTA).\nTo investigate the antiproliferative potential of B. saligna and DT-BS-01, the XTT assay was performed. Antiproliferative activity was measured using the method as described by Berrington and Lall (2012) using the XTT Cell Proliferation Kit II. […] Thereafter, 50 μl XTT (0.3 mg/ml) was added to the cells and incubated for 2 h where after the absorbance was measured at 490 nm (reference wavelength of 690 nm) using a BIO-TEK power-wave XS plate reader (A.D.P, Weltevreden Park, South Africa). […] The samples were tested in triplicate and the percentage cell viability was calculated using the following equation.\nWhere Abscontrol is the absorbance of XTT+vehicle control and Absample is the absorbance of (XTT+sample OR positive control)−(blank values of corresponding sample). The fifty percent inhibitory concentrations (IC50) were calculated from the % cell viability using the GraphPad Prism 4 software. […]"}, "HaCat cells [3]": {"test_system": "HaCat cells", "assay": "Light microscopy (haematoxylin and eosin staining), cell morphology", "type": "cell-based, human", "conditions": "0.025 μg/ml, 48 h", "protocol": "(§1) One of the hallmarks of cancer cells is their ability to evade apoptosis, therefore providing a suitable target for the destruction of cancer cells. The effect of B. saligna and DT-BS-01 on the morphology of UCT-MEL-1 and HaCat cells was determined using light microscopy. Light microscopy (haematoxylin and eosin staining) was used to determine the qualitative effect B. saligna (30 and 60 μg/ml) and DT-BS-01 (5 and 20 μg/ml) on the morphology of UCT-MEL-1 and HaCat cells. […] Exponentially growing UCT-MEL-1 and HaCat cells were seeded at 1.0×10^5 cells per well in a 6-well plate and incubated for 24 h at 37° C. at 5% CO2 to allow for cell adherence. […] Cells were stained (in the 6-well plate) as described by Berrington & Lall (2012). After staining, sterile PBS was added to all the wells and immediately analysed for morphological changes using a light microscope (Zeiss Primovert).\n(§2) Light microscopy was performed in order to determine whether cell death, induced by B. saligna and the DT-BS-01 was mediated through apoptosis (FIG. 2 and FIG. 3). Apoptosis is described as a programmed cell death in which biochemical and morphological changes occur within the cells. […]"}, "UCT-MEL-1 cells [4]": {"test_system": "UCT-MEL-1 cells", "assay": "Light microscopy (haematoxylin and eosin staining), cell morphology", "type": "cell-based, human", "conditions": "0.025 μg/ml, 48 h", "protocol": "as §1, §2"}, "HaCat cells [5]": {"test_system": "HaCat cells", "assay": "Flow cytometry apoptosis detection (Annexin V / 7-AAD)", "type": "cell-based, human", "conditions": "0.025 μg/ml, 48 h", "excerpt": "(§3) Phosphatidylserine (PS) is a lipid, which is present in the inner leaflet of the plasma membrane. The early stages of apoptosis are characterized by an asymmetric membrane due to the translocation of the PS lipid from the inner membrane leaflet to the outer leaflet. Once exposed to the outer cellular environment, Annexin V, which has a high affinity for PS, is able to bind to it. After the early stages of apoptosis have taken place, the plasma membrane integrity starts to disintegrate thereby allowing the uptake of 7-AAD into the cell, which is associated with late apoptosis or necrosis. […] Using Annexin V and 7-AAD staining can therefore, not distinguish between late apoptosis or necrosis, however can characterize early apoptosis. The degree of apoptosis was thus measured using the Annexin V-FITC apoptosis detection kit. […] Actinomycin D (0.025 μg/ml) was used as a positive control for apoptosis to occur. Other controls included a medium (untreated) and 0.25% DMSO vehicle control. […] An additional 400 μl binding buffer was added to each culture tube and the fluorescence was measured using an Accuri C6 flow cytometer (BD Biosciences, San Jose, CA, USA). Data from at least 10,000 cells were analyzed using the BD Accuri C6 software."}, "UCT-MEL-1 cells [6]": {"test_system": "UCT-MEL-1 cells", "assay": "Flow cytometry apoptosis detection (Annexin V / 7-AAD)", "type": "cell-based, human", "conditions": "0.025 μg/ml, 48 h", "excerpt": "as §3"}, "[7]": {"assay": "Nitric oxide scavenging activity (Griess reaction)", "procedure": "Briefly, 90 μl of distilled water was added to the top row of a 96-well microtitre plate and 50 μl to the rest of the wells in the plate. […] Ethanol was used as the negative control. To each well 50 μl sodium nitroprusside (10 mM) was added and the plates were incubated at room temperature for 90 min. Thereafter, 100 μl Griess reagent was added to all the wells, except for the blank plates where distilled water was added. […] All samples were tested in triplicate. The percentage inhibition of the samples was calculated using the below equation.\nWhere Abscontrol is the absorbance of NO radical+ethanol control; Absample is the absorbance of (NO radical+sample OR positive control)−(blank values of corresponding sample). The IC50 values for each sample were calculated using GraphPad Prism 4 software."}, "[8]": {"test_system": "vascular endothelial growth factor (VEGF)", "assay": "Quantification of in vitro VEGF in HaCat cells (ELISA)", "type": "cell-based", "conditions": "Homo sapiens, 6 μg/ml, 6 h, read-out: inhibition of VEGF production", "protocol": "(§4) Exponentially growing UCT-MEL-1 and HaCat cells were seeded at a concentration of 1.0×10^5 cells/well in a 24-well plate with complete medium to allow for cell adherence. After 24 h, the medium was removed and replaced with fresh complete medium. Stock concentrations of the B. saligna extract and DT-BS-01 were prepared at 1 mg/ml. The cells were treated with final concentrations of the B. saligna at 30 and 60 μg/ml; and DT-BS-01 at 5 and 20 μg/ml. Controls included a 0.15% DMSO vehicle control, cells grown in medium only and cells exposed to the positive control, ursolic acid at final concentrations of 6 μg/ml. After 6 h of treatment, the plates were centrifuged at 980 rpm for 10 min and the supernatant collected for quantification of VEGF using an ELISA kit (ThermoFisher Scientific, Johannesburg, South Africa) (Thermo Fisher, 2017). The cells viability was further determined using XTT at a final concentration of 0.3 mg/ml. The quantification of VEGF was performed according to the manufacturer's protocol (Novex® Cat #KHG0111) using a VEGF standard curve."}, "in vitro": {"assay": "in vitro", "type": "cell-based", "conditions": "human", "protocol": "as §4\nThe levels of VEGF secreted by UCT-MEL-1 and HaCat cells were determined after 6 h incubation with B. saligna and DT-BS-01. […] The HaCat cell viability was determined after treatment with the various samples and controls in order to determine whether inhibition of VEGF could have been due to a decrease in cell viability. […]"}}, "note": "Numbered stars: 1 amine (or outer) side, 2 acyl side, 3 side chain; on linkers, the order of the positions; unused ones are H or OH. Bridge positions count the residues as written; N and C are the ends. Square brackets hold non-standard residues; d marks the D form. Peptide text beside a SMILES is read from it. I, II: the chains in the order shown. Actinocin(9to1) = Cc1c2oc3c(C)ccc(C(=O)[*:1])c3nc-2c(C(=O)[*:2])c(N)c1=O; NMeV = CN[C@H](C(=O)O)C(C)C; Sar = CNCC(=O)O"}
{"smiles": "CC1(C)CC[C@]2(C(=O)O)CC[C@]3(C)C(=CC[C@@H]4[C@@]5(C)CC[C@H](O)C(C)(C)[C@@H]5CC[C@]43C)[C@@H]2C1", "note": "[oleanolic acid]", "values": [{"measurement": "angiogenic potential / capillary density in CAM", "setting": "SK-MEL-2 melanoma", "value": "able to reduce the angiogenic potential"}]}
{"smiles": "Cc1c2oc3c(C)ccc(C(=O)N[C@@H]4C(=O)N[C@H](C(C)C)C(=O)N5CCC[C@H]5C(=O)N(C)CC(=O)N(C)[C@@H](C(C)C)C(=O)O[C@@H]4C)c3nc-2c(C(=O)N[C@@H]2C(=O)N[C@H](C(C)C)C(=O)N3CCC[C@H]3C(=O)N(C)CC(=O)N(C)[C@@H](C(C)C)C(=O)O[C@@H]2C)c(N)c1=O", "note": "[Actinomycin D] (I: T[dV]P[Sar][NMeV] / II: T[dV]P[Sar][NMeV]; ester I:1-I:C, II:1-II:C; linker I:N-II:N via Actinocin(9to1))", "values": [{"measurement": "selectivity index (SI)", "setting": "[1]", "value": 3.83}, {"measurement": "IC50 on HaCat cells", "setting": "[2]", "value": "0.0092 ± 6.88e-05", "unit": "µg/mL"}, {"measurement": "cell morphology, HaCat", "setting": "HaCat cells [3]", "value": "displayed characteristic signs of apoptosis"}, {"measurement": "cell morphology, UCT-MEL-1", "setting": "UCT-MEL-1 cells [4]", "value": "displayed characteristic signs of apoptosis"}, {"measurement": "cells in late apoptosis, HaCat", "setting": "HaCat cells [5]", "value": 90.6, "unit": "%"}, {"measurement": "cells in late apoptosis, UCT-MEL-1", "setting": "UCT-MEL-1 cells [6]", "value": 99.2, "unit": "%"}]}
{"smiles": "O=C1O[C@H]([C@@H](O)CO)C(O)=C1O", "note": "[ascorbic acid]", "values": [{"measurement": "NO radical scavenging activity", "setting": "[7]; 500 μg/ml", "value": "75.70±0.15", "unit": "%"}, {"measurement": "NO IC50 ± SD", "setting": "[7]; NO radical scavenging", "value": "62.46 ± 0.46", "unit": "µg/mL"}]}
{"smiles": "C[C@H]1[C@H](C)CC[C@]2(C(=O)O)CC[C@]3(C)C(=CC[C@@H]4[C@@]5(C)CC[C@H](O)C(C)(C)[C@@H]5CC[C@]43C)[C@H]12", "note": "[ursolic acid]", "values": [{"measurement": "inhibition at 6 µg/mL", "setting": "[8]", "value": "16 ± 0.93", "unit": "%"}, {"measurement": "viability at 6 h, 6 μg/ml", "setting": "in vitro", "value": "96 ± 3.62", "unit": "%"}, {"measurement": "angiogenic potential / capillary density in CAM", "setting": "SK-MEL-2 melanoma", "value": "did not inhibit the density of the capillaries"}]}
